Laboratory results from patent publication US10221163B2 (priority 2015, dated 2019).
Read-outs that look alike come from different tables or passages of the source.

What was measured:
IMP-1 = IMP-1 (Serratia marcescens, UniProt P52699); experiment: biochemical; format: biochemical; conditions: fluorescence assay, CCF2-FA substrate, 2 pM enzyme, 2 hours at 25° C.; read-out: IMP-1 IC50
Procedure, shortened: (§1)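 Inhibitor was mixed with the metallo-β-lactamase and CCF2-FA. After 2 hours at 25° C, fluorescence of the coumarin–fluorescein cephalosporin substrate was read. IC50 was calculated with a 4-parameter fit.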

NDM-1 = NDM-1 (Klebsiella pneumoniae, UniProt C7C422); experiment: biochemical; format: biochemical; conditions: fluorescence assay, CCF2-FA substrate, 1 pM enzyme, 2 hours at 25° C.; read-out: NDM-1 IC50
Procedure, shortened: as §1

VIM-1 = VIM-1 (Pseudomonas aeruginosa (strain ATCC 15692 / DSM 22644 / CIP 104116 / JCM 14847 / LMG 12228 / 1C / PRS 101 / PAO1), UniProt A0A0F7KYQ8); experiment: biochemical; conditions: CCF2-FA substrate, 30 pM enzyme, 2 hours at 25° C.
Procedure, shortened: as §1

[1] = test system: Escherichia coli expressing NDM-1 (CLB30005, CLB30016); format: cell-based; conditions: NDM-1 strain, with imipenem 1 μg/ml, 95% inhibition of growth
Procedure, shortened: (§2)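 Colonies grown overnight on blood agar at 35° C were suspended in saline, diluted 1:100 into 1.1×CAMHB and dispensed. Imipenem was added to 1 μg/ml, then test compound. After 22 hours to 24 hours at 35° C, absorbance was recorded.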

[2] = test system: Klebsiella pneumoniae expressing VIM-1 (IHMA599644); format: cell-based; conditions: VIM-1 strain IHMA599644, with imipenem 1 μg/ml, 95% inhibition of growth
Procedure, shortened: as §2

[3] = test system: Serratia marcescens expressing IMP-1 (CL5741); format: cell-based; conditions: IMP-1 strain CL5741, with imipenem 1 μg/ml, 95% inhibition of growth
Procedure, shortened: as §2

[4] = test system: Pseudomonas aeruginosa efflux+ (MB9798), IMP-1; format: cell-based; conditions: concentration restoring susceptibility to imipenem at 2 μg/mL in the presence of a class A, C, D serine β-lactamase inhibitor closely related to relebactam
Procedure, shortened: (§3)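 P. aeruginosa PAO1-derived IMP-1 strains, efflux+ MB9798 and efflux− MB9799, tested by standard microbroth MIC with imipenem and/or ceftazidime fixed, usually at CLSI breakpoint, plus fixed class A/C β-lactamase inhibitor against AmpC. Inhibitor titrated; concentration restoring susceptibility recorded; MB9798/MB9799 fold difference indicates efflux.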

[5] = test system: Pseudomonas aeruginosa efflux− (MB9799), IMP-1; format: cell-based; conditions: concentration restoring susceptibility to imipenem at 2 μg/mL in the presence of a class A, C, D serine β-lactamase inhibitor closely related to relebactam
Procedure, shortened: as §3

[6] = test system: Pseudomonas aeruginosa MB9798 vs MB9799; conditions: ratio MITC95 PA_9798/MITC95 PA_9799
Procedure, shortened: as §3

[7] = fluorescence assay, read-out: VIM-1 IC50

Sequence of IMP-1 (P52699 whole entry, looked up, species assumed): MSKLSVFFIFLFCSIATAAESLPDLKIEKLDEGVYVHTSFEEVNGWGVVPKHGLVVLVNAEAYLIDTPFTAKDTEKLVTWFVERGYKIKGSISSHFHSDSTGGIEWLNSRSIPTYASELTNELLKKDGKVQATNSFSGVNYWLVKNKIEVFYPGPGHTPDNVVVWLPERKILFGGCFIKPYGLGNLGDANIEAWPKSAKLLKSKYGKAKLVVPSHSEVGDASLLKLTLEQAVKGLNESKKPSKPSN
Sequence of NDM-1 (C7C422 whole entry, looked up, species assumed): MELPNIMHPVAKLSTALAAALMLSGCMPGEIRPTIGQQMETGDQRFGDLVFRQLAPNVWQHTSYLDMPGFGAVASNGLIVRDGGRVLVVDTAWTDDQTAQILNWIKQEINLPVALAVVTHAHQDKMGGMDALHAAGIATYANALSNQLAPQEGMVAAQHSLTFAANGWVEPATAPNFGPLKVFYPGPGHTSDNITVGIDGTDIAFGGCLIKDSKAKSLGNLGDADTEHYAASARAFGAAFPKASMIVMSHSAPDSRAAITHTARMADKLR

| SMILES | IC50 (IMP-1) [nM] | IC50 (NDM-1) [nM] | IC50 (VIM-1; [7]) [nM] | Escherichia coli MITC95 [1] [µM] | Klebsiella pneumoniae MITC95 [2] [µM] | Serratia marcescens MITC95 [3] [µM] | P. aeruginosa expressing IMP-1, efflux + (MB9798) MITC95 [4] [µM] | P. aeruginosa expressing IMP-1, efflux − (MB9799) MITC95 [5] [µM] | Efflux ratio [6] | IC50 (VIM-1; VIM-1 IC50, fluorescence assay) [nM] |
| --- | --- | --- | --- | --- | --- | --- | --- | --- | --- | --- |
| NCCNS(=O)(=O)c1ccc(-c2cccc(NC[C@@H](N)CO)c2)c(-c2nn[nH]n2)c1S(N)(=O)=O [Example 349, (R)-3′-((2-amino-3-hydroxypropyl)amino)-N4-(2-aminoethyl)-2-(2H-tetrazol-5-yl)-[1,1′-biphenyl]-3,4-disulfonamide] | 5.65 | 1.62 | 0.433 | 1.563 | 1.563 | 1.563 | 1.563 | 0.7813 | 2.00 | – |
| NCCNS(=O)(=O)c1ccc(-c2cccc(NC[C@H](N)CO)c2)c(-c2nn[nH]n2)c1S(N)(=O)=O [Example 350, (S)-3′-((2-amino-3-hydroxypropyl)amino)-N4-(2-aminoethyl)-2-(2H-tetrazol-5-yl)-[1,1′-biphenyl]-3,4-disulfonamide] | 4.4 | 1.72 | 0.412 | 0.7813 | 0.7813 | 0.7813 | 0.7813 | 0.7813 | 1.00 | – |
| NCCNS(=O)(=O)c1ccc(-c2cccc(NC[C@H](O)CN)c2)c(-c2nn[nH]n2)c1S(N)(=O)=O [Example 351, (R)-3′-((3-amino-2-hydroxypropyl)amino)-N4-(2-aminoethyl)-2-(2H-tetrazol-5-yl)-[1,1′-biphenyl]-3,4-disulfonamide] | 3.55 | 1.36 | – | 0.7813 | 1.563 | 1.563 | 1.563 | 0.7813 | 2.00 | 0.453 |
| NCCNS(=O)(=O)c1ccc(-c2cccc(NC[C@@H](O)CN)c2)c(-c2nn[nH]n2)c1S(N)(=O)=O [Example 352, (S)-3′-((3-amino-2-hydroxypropyl)amino)N4-(2-aminoethyl)-2-(2H-tetrazol-5-yl)-[1,1′-biphenyl]-3,4-disulfonamide] | 4.39 | 1.41 | – | 0.7813 | 1.563 | 1.563 | 1.563 | 0.7813 | 2.00 | 0.379 |
| NCCNS(=O)(=O)c1ccc(-c2cccc(-c3c[nH]c(N)n3)c2)c(-c2nn[nH]n2)c1S(N)(=O)=O [Example 353, 3′-(2-amino-1H-imidazol-4-yl)-N4-(2-aminoethyl)-2-(2H-tetrazol-5-yl)-[1,1′-biphenyl]-3,4-disulfonamide] | 1.15 | 0.259 | 0.571 | 0.3906 | 1.563 | 0.7813 | 1.563 | 0.7813 | 2.00 | – |
| NCCNS(=O)(=O)c1ccc(-c2cccc(SCC(N)CO)c2)c(-c2nn[nH]n2)c1S(N)(=O)=O (stereo not drawn) [Example 354, 3′-((2-amino-3-hydroxypropyl)thio)-N4-(2-aminoethyl)-2-(2H-tetrazol-5-yl)-[1,1′-biphenyl]-3,4-disulfonamide] | 0.453 | 0.817 | 0.108 | 0.3906 | 0.7813 | 1.563 | 1.563 | 0.3906 | 4.00 | – |
| NCCNS(=O)(=O)c1ccc(-c2cccc3ccc(N)nc23)c(-c2nn[nH]n2)c1S(N)(=O)=O [Example 355, N1-(2-aminoethyl)-4-(2-aminoquinolin-8-yl)-3-(2H-tetrazol-5-yl)benzene-1,2-disulfonamide] | 0.2 | 0.0509 | – | 0.1953 | 1.563 | 0.7813 | 0.7813 | 0.7813 | 1.00 | 0.141 |
| NCCNS(=O)(=O)c1ccc(-c2cccc(SC[C@H](O)CN)c2)c(-c2nn[nH]n2)c1S(N)(=O)=O [Example 356, (R)-3′-((3-amino-2-hydroxypropyl)thio)-N4-(2-aminoethyl)-2-(2H-tetrazol-5-yl)-[1,1′-biphenyl]-3,4-disulfonamide] | 1.41 | 1.82 | – | 0.7813 | 0.7813 | 0.7813 | 0.7813 | 0.3906 | 2.00 | 0.244 |
| NCCNS(=O)(=O)c1ccc(-c2cccc(SC[C@@H](O)CN)c2)c(-c2nn[nH]n2)c1S(N)(=O)=O [Example 357, (S)-5′-(3-amino-2-hydroxypropylthio)-N4-(2-aminoethyl)-2-(2H-tetrazol-5-yl)biphenyl-3,4-disulfonamide] | 1.21 | 1.26 | – | 0.7813 | 0.7813 | 0.7813 | 0.7813 | 0.3906 | 2.00 | 0.224 |
| NCCNS(=O)(=O)c1ccc(-c2cccnc2N)c(-c2nn[nH]n2)c1S(N)(=O)=O [Example 358, N1-(2-aminoethyl)-4-(2-aminopyridin-3-yl)-3-(2H-tetrazol-5-yl)benzene-1,2-disulfonamide] | 4.05 | 0.319 | 0.205 | 0.2441 | 1.563 | 0.3906 | 1.563 | 0.7813 | 2.00 | – |
| NCCNS(=O)(=O)c1ccc(-c2cnc3cc[nH]c3c2)c(-c2nn[nH]n2)c1S(N)(=O)=O [Example 359, N1-(2-aminoethyl)-4-(1H-pyrrolo[3,2-b]pyridin-6-yl)-3-(2H-tetrazol-5-yl)benzene-1,2-disulfonamide] | 1.61 | 0.154 | 0.254 | 0.09766 | 1.563 | 0.3906 | 1.563 | 0.7813 | 2.00 | – |
| NCCNS(=O)(=O)c1ccc(-c2cccn3ccnc23)c(-c2nn[nH]n2)c1S(N)(=O)=O [Example 361, N1-(2-aminoethyl)-4-(imidazo[1,2-a]pyridin-8-yl)-3-(2H-tetrazol-5-yl)benzene-1,2-disulfonamide] | 0.147 | 0.143 | – | 0.3906 | 1.563 | 0.7813 | 0.7813 | 0.7813 | 1.00 | 0.0953 |
| NC[C@H](CO)NS(=O)(=O)c1ccc(-c2ccnc(N)c2)c(-c2nn[nH]n2)c1S(N)(=O)=O [Example 362, (R)—N1-(1-amino-3-hydroxypropan-2-yl)-4-(2-aminopyridin-4-yl)-3-(2H-tetrazol-5-yl)benzene-1,2-disulfonamide] | 9.51 | 3.08 | – | 1.563 | 3.125 | 1.563 | 3.125 | 1.563 | 2.00 | 1.88 |
